The text below walks through data of patent US11932639B2, “Fused ring heteroaryl compounds as ALK4/5 inhibitors” (BiSiChem Co., Ltd., priority 2019, dated 2024).

The test concerns the target T1, ALK5 (Homo sapiens, UniProt P36897).
T1 construct: endogenous in cells; host or cells: Hs578T (ATCC HTB-22), inferred as the cells of the reporter assay
T1 sequence (P36897 34-503): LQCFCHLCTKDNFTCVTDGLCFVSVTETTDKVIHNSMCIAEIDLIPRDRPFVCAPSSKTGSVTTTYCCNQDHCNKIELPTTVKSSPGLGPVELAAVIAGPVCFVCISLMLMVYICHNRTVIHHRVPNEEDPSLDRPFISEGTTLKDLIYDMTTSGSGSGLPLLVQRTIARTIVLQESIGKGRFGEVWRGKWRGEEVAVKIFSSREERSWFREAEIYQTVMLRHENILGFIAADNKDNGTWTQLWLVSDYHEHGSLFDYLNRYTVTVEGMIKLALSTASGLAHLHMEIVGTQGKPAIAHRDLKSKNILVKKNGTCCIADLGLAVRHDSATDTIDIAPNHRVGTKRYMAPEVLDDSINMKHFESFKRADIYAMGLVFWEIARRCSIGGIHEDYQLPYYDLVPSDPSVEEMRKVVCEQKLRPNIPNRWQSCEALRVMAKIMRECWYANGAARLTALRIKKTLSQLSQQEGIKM
Description: Cell-based luciferase reporter assay for ALK5 activity. The settings on record: (CAGA)-12-luciferase reporter, Smad 2/3-responsive promoter, 2 ng/ml TGF-β1 stimulation for 12 hours; read-out: Relative luciferase activity: IC50 value. The method, then:
Human cancer cell lines Hs578T (ATCC® HTB-22™) cells were grown in DMEM (Dulbecco's modified Eagle's medium) supplemented with 10% fetal bovine serum and 1% mixture of penicillin and streptomycin (Gibco). Cells were maintained at 37° C. in a humidified 5% CO2 atmosphere.
Cell-Based Luciferase Reporter Assay for ALK5 Activity
Cells were seeded at 3×10^4/well in 24-well plates were transiently transfected with 500 ng of (CAGA)-12-luciferase reporter construct and 5 ng of pRL-TK Renilla luciferase vector (Promega, Madison, WI), an internal control for transfection efficiency, using Lipofectamine 3000 reagent (Thermo Fisher Scientific, Waltham, USA). After 24 h transfection, the cells were pre-treated with ALK5 inhibitor in dose-dependent manner. And then, Cells stimulated with 2 ng/ml recombinant TGF-β1 for 12 hours. After the stimulation, the firefly and Renilla luciferase activities were measured by Dual-Luciferase Repoter Assay (Promega).
For orientation: Reporter assays use an easily measured gene product as a stand-in for the process of interest.
As usually defined, the IC50 is the midpoint of a concentration-inhibition curve. In the case of `Cc1cccc(-c2[nH]c(CNc3cccc(Cl)c3F)nc2-c2ccn3nccc3c2)n1` [Example 1, 3-chloro-2-fluoro-N-((5-(6-methylpyridin-2-yl)-4-(pyrazolo[1,5-a]pyridin-5-yl)-1H-imidazol-2-yl)methyl)aniline], the IC50 fell in the range of 10 to 100 nM.

As for `Cc1cccc(-c2[nH]c(CNc3ccc(Cl)c(Cl)c3)nc2-c2ccn3nccc3c2)n1` [Example 2, 3,4-dichloro-N-((5-(6-methylpyridin-2-yl)-4-(pyrazolo[1,5-a]pyridin-5-yl)-1H-imidazol-2-yl)methyl)aniline], the IC50 is below 10 nM.

With `Cc1cccc(-c2[nH]c(CNc3ccccc3F)nc2-c2ccn3ncnc3c2)n1` [Example 3, N-((4-([1,2,4]triazolo[1,5-a]pyridin-7-yl)-5-(6-methylpyridin-2-yl)-1H-imidazol-2-yl)methyl)-2-fluoroaniline], the IC50 lay in the range of 10 to 100 nM.

As to `Cc1cccc(-c2[nH]c(CNc3cccc(Cl)c3F)nc2-c2ccn3ncnc3c2)n1` [Example 4, N-((4-([1,2,4]triazolo[1,5-a]pyridin-7-yl)-5-(6-methylpyridin-2-yl)-1H-imidazol-2-yl)methyl)-3-chloro-2-fluoroaniline], the IC50 is below 10 nM.

As for `Cc1cccc(-c2[nH]c(CNc3ccc(Cl)c(Cl)c3)nc2-c2ccn3ncnc3c2)n1` [Example 5, N-((4-([1,2,4]triazolo[1,5-a]pyridin-7-yl)-5-(6-methylpyridin-2-yl)-1H-imidazol-2-yl)methyl)-3,4-dichloroaniline], the IC50 was below 10 nM.

On to `Cc1cccc(-c2[nH]c(NCc3ccccc3F)nc2-c2ccn3nccc3c2)n1` [Example 6, N-(2-fluorobenzyl)-5-(6-methylpyridin-2-yl)-4-(pyrazolo[1,5-a]pyridine-5-yl)-1H-imidazol-2-amine], for which the IC50 lay within 10 to 100 nM.

Consider `Cc1cccc(-c2[nH]c(NCc3cccc(F)c3)nc2-c2ccn3nccc3c2)n1` [Example 7, N-(3-fluorobenzyl)-5-(6-methylpyridin-2-yl)-4-(pyrazolo[1,5-a]pyridine-5-yl)-1H-imidazol-2-amine], for which the IC50 was in the range of 10 to 100 nM.

As to `Cc1cccc(-c2[nH]c(NCc3cccc(Cl)c3F)nc2-c2ccn3nccc3c2)n1` [Example 8, N-(3-chloro-2-fluorobenzyl)-5-(6-methylpyridin-2-yl)-4-(pyrazolo[1,5-a]pyridin-5-yl)-1H-imidazol-2-amine], the IC50 is 10 to 100 nM.

In the case of `Cc1cccc(-c2[nH]c(NCc3ccc(Cl)cc3F)nc2-c2ccn3nccc3c2)n1` [Example 9, N-(4-chloro-2-fluorobenzyl)-5-(6-methylpyridin-2-yl)-4-(pyrazolo[1,5-a]pyridin-5-yl)-1H-imidazol-2-amine], the IC50 is below 10 nM.

In the case of `Cc1cccc(-c2[nH]c(NCc3ccc(Cl)c(Cl)c3)nc2-c2ccn3nccc3c2)n1` [Example 10, N-(3,4-dichlorobenzyl)-5-(6-methylpyridin-2-yl)-4-(pyrazolo[1,5-a]pyridin-5-yl)-1H-imidazol-2-amine], the IC50 is 10 to 100 nM.

In the case of `Cc1cccc(-c2[nH]c(NCc3ccccc3F)nc2-c2ccn3ncnc3c2)n1` [Example 11, 4-([1,2,4]triazolo[1,5-a]pyridin-7-yl)-N-(2-fluorobenzyl)-5-(6-methylpyridin-2-yl)-1H-imidazol-2-amine], the IC50 is 10 to 100 nM.

Turning to `Cc1cccc(-c2[nH]c(NCc3cccc(F)c3)nc2-c2ccn3ncnc3c2)n1` [Example 12, 4-([1,2,4]triazolo[1,5-a]pyridin-7-yl)-N-(3-fluorobenzyl)-5-(6-methylpyridin-2-yl)-1H-imidazol-2ylamine], the IC50 was 10 to 100 nM.

`Cc1cccc(-c2[nH]c(NCc3cccc(Cl)c3)nc2-c2ccn3ncnc3c2)n1` [Example 13, 4-([1,2,4]triazolo[1,5-a]pyridin-7-yl)-N-(3-chlorobenzyl)-5-(6-methylpyridin-2-yl)-1H-imidazol-2-amine]: the concentration for half-maximal inhibition (IC50) was 10 to 100 nM.

With `Cc1cccc(-c2[nH]c(NCc3ccc(Cl)cc3)nc2-c2ccn3ncnc3c2)n1` [Example 14, 4-([1,2,4]triazolo[1,5-a]pyridin-7-yl)-N-(4-chlorobenzyl)-5-(6-methylpyridin-2-yl)-1H-imidazol-2-amine], the IC50 was below 10 nM.

As to `Cc1cccc(-c2[nH]c(NCc3cccc(F)c3F)nc2-c2ccn3ncnc3c2)n1` [Example 15, 4-([1,2,4]triazolo[1,5-a]pyridin-7-yl)-N-(2,3-difluorobenzyl)-5-(6-methylpyridin-2-yl)-1-imidazol-2-ylamine], the IC50 is 10 to 100 nM.

With `Cc1cccc(-c2[nH]c(NCc3c(F)cccc3F)nc2-c2ccn3ncnc3c2)n1` [Example 16, 4-([1,2,4]triazolo[1,5-a]pyridin-7-yl)-N-(2,6-difluorobenzyl)-5-(6-methylpyridin-2-yl)-1H-imidazol-2-amine], the IC50 is 10 to 100 nM.

For the compound `Cc1cccc(-c2[nH]c(NCc3ccc(Cl)cc3F)nc2-c2ccn3ncnc3c2)n1` [Example 17, 4-([1,2,4]triazolo[1,5-a]pyridin-7-yl)-N-(4-chloro-2-fluorobenzyl)-5-(6-methylpyridin-2-yl)-1H-imidazol-2-amine], the IC50 lay within 10 to 100 nM.

Consider `Cc1cccc(-c2[nH]c(NCc3cccc(Cl)c3F)nc2-c2ccn3ncnc3c2)n1` [Example 18, 4-([1,2,4]triazolo[1,5-a]pyridin-7-yl)-N-(3-chloro-2-fluorobenzyl)-5-(6-methylpyridin-2-yl)-1H-imidazol-2-amine], for which the IC50 was below 10 nM.

Consider `Cc1cccc(-c2[nH]c(NCc3cc(Cl)ccc3F)nc2-c2ccn3ncnc3c2)n1` [Example 19, 4-([1,2,4]triazolo[1,5-a]pyridin-7-yl)-N-(5-chloro-2-fluorobenzyl)-5-(6-methylpyridin-2-yl)-1H-imidazol-2-amine], for which the IC50 was 10 to 100 nM.

Turning to `Cc1cccc(-c2[nH]c(NCc3ccc(Cl)c(Cl)c3)nc2-c2ccn3ncnc3c2)n1` [Example 20, 4-([1,2,4]triazolo[1,5-a]pyridin-7-yl)-N-(3,4-dichlorobenzyl)-5-(6-methylpyridin-2-yl)-1H-imidazol-2-amine], the IC50 is below 10 nM.

For `Cc1cccc(-c2[nH]c(NCc3ccc(Cl)cc3Cl)nc2-c2ccn3ncnc3c2)n1` [Example 21, 4-([1,2,4]triazolo[1,5-a]pyridin-7-yl)-N-(2,4-dichlorobenzyl)-5-(6-methylpyridin-2-yl)-1H-imidazol-2-amine], the IC50 was in the range of 10 to 100 nM.

Turning to `COc1cccc(CNc2nc(-c3ccn4ncnc4c3)c(-c3cccc(C)n3)[nH]2)c1F` [Example 22, 4-([1,2,4]triazolo[1,5-a]pyridin-7-yl)-N-(2-fluoro-3-methoxybenzyl)-5-(6-methylpyridin-2-yl)-1H-imidazol-2-amine], the IC50 was in the range of 10 to 100 nM.

`COc1ccc(CNc2nc(-c3ccn4ncnc4c3)c(-c3cccc(C)n3)[nH]2)c(F)c1` [Example 23, 4-([1,2,4]triazolo[1,5-a]pyridin-7-yl)-N-(2-fluoro-4-methoxybenzyl)-5-(6-methylpyridin-2-yl)-1H-imidazol-2-amine]: the IC50 is 10 to 100 nM.

For the compound `CNC(=O)c1cccc(CNc2nc(-c3ccn4ncnc4c3)c(-c3cccc(C)n3)[nH]2)c1` [Example 24, 3-((4-([1,2,4]triazolo[1,5-a]pyridin-7-yl)-5-(6-methylpyridin-2-yl)-1H-imidazol-2ylamino)methyl)-N-methylbenzamide], the IC50 is above 100 nM.

As for `CNC(=O)c1ccc(CNc2nc(-c3ccn4ncnc4c3)c(-c3cccc(C)n3)[nH]2)cc1` [Example 25, 4-((4-([1,2,4]triazolo[1,5-a]pyridin-7-yl)-5-(6-methylpyridin-2-yl)-1H-imidazol-2-ylamino)methyl)-N-methylbenzamide], the IC50 is above 100 nM.

For `Cc1cccc(-c2[nH]c(NC(=O)c3ccccc3F)nc2-c2ccn3ncnc3c2)n1` [Example 26, N-(4-([1,2,4]triazolo[1,5-a]pyridin-7-yl)-5-(6-methylpyridin-2-yl)-1H-imidazol-2-yl)-2-fluorobenzamide], the IC50 is 10 to 100 nM.

For `Cc1cccc(-c2[nH]c(NC(C)c3ccccc3F)nc2-c2ccn3ncnc3c2)n1` (stereo not drawn) [Example 27, 4-([1,2,4]tiazolo[1,5-a]pyridin-7-yl)-N-(1-(2-fluorophenyl)ethyl)-5-(6-methylpyridin-2-yl)-1H-imidazol-2-amine], the IC50 was in the range of 10 to 100 nM.
